# Measurements reported in patent US11613531B2, “Inhibitors of RHO associated coiled-coil containing protein kinase” (Kadmon Corporation, LLC, priority 2017, dated 2023).
# Like-named read-outs stand apart in the source and are kept apart here.
# Key:
# [1] = test system: human ACTA2 gene promoter luciferase reporter in NIH3T3 cells; experiment: NIH3T3 Acta2-promoter driven-luciferase assay; assay type: cell-based; settings: read-out: NIH3T3 Acta2-luc, IC50
# Protocol: NIH3T3 Cells Acta2-Promoter Driven-Luciferase Assay.
# A NIH3T3 cell line stably expressing a luciferase reporter driven by the human ACTA2 gene promoter (−1000-1 bp) was established (NIH3T3-Acta2-luciferase). The cells were plated to confluence and treated with the test compounds plus TGFβ1 for 24 hr. Cells were then lysed and luciferase activity was measured using the LightSwitch luciferase kit from Active Motif.
# In vitro activities for the compounds were measured with Z′-lyte kinase kit (ThermoFisher Scientific). The percent inhibition rate was calculated by normalizing the kinase activity value obtained with 1 μM compound treatment against DMSO control value and then applied to the formula, [1-(compound/DMSO)]×100%. IC50s were calculated using the nonlinear regression curve fit function of the GraphPad Prism software with kinase activities data measured with 9 points 2-fold serial dilution of compounds treatment. In cell pMLC IC50s were calculated with data obtained from A7R5 cell experiments. A7R5 cells were treated with 9 points 2-fold serial dilution of compounds and ppMlc (T18/S19) levels were determined to calculate cellular IC50 values of the compounds using the nonlinear regression curve fit function of the GraphPad Prism software. NIH3T3 cells stably expressing ACTA2-promoter-driven-luciferase were applied to measure ROCK compounds functional IC50s in cells. Cells were plated in 96 well plates to confluence and treated with 9 points serial dilution of compounds in combination with TGFβ1 for 24 hr. Luciferase activities were measured and compound's IC50s were calculated using the nonlinear regression curve fit function of the GraphPad Prism software.
# ROCK inhibitors can be effectively rank ordered by ACTA2-promoter-driven-luciferase reporter cell assay. NIH3T3 cells stably expressing ACTA2-promoter-driven-luciferase were plated in 96 well plates to confluence and treated with 9 points serial dilution of compounds in combination with TGFβ1 for 24 hr. Luciferase activities were measured and compound's IC50s were calculated. By this assay multiple compounds of the invention gave IC50s under 200 nM.
# [2] = molecular target: Recombinant ROCK2 (amino acids 1-552) (Homo sapiens (Human), UniProt O75116); experiment: Z′-Lyte kinase assay, ROCK2; assay type: biochemical; settings: for inhibition at 1 µM: 1 μM compound; for inhibition at 1 µM / inhibition at 0.5 µM: read-out: ROCK2 % inh. @ [conc]; for inhibition at 0.5 µM: 0.5 μM compound
# How it was run: (§1)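 Recombinant human ROCK1 (aa 1-535) or ROCK2 (aa 1-552) activity read by Z′-Lyte kinase assay. Percent inhibition at 1 μM compound was normalized to DMSO control; IC50 from 9-point 2-fold serial dilutions by nonlinear regression.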
# [3] = molecular target: Recombinant ROCK1 (amino acids 1-535) (Homo sapiens (Human), UniProt Q13464); experiment: Z′-Lyte kinase assay, ROCK1; assay type: biochemical; settings: for inhibition at 0.5 µM: 0.5 μM compound, read-out: ROCK1 % inh. @ [conc]
# How it was run: as §1
# [4] = test system: ppMlc (T18/S19) levels in A7R5 cells; experiment: A7R5 in-cell ELISA (pMLC); assay type: cell-based, Rat; settings: Rattus norvegicus, A7R5, A7R5 cells; for inhibition at 10 µM: 10 μM compound; for inhibition at 10 µM / inhibition at 1 µM: read-out: pMLC % inh A7R5 @ [conc]; for inhibition at 1 µM: 1 μM compound
# How it was run: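 A7R5 rat aortic smooth muscle cells seeded 24 h, then treated 90 min with a 9-point 2-fold compound dilution series. Fixed cells probed for ppMlc (T18/S19) by colorimetric in-cell ELISA; cellular IC50 from nonlinear regression curve fit.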
# [5] = NIH3T3, 24 h, NIH3T3 cells, plus TGFβ1 for 24 hr
# [6] = 9 points 2-fold serial dilution
# [7] = NIH3T3, 24 h, with TGFβ1, 24 hr
# Recombinant ROCK2 (amino acids 1-552), sequence (O75116 1-552): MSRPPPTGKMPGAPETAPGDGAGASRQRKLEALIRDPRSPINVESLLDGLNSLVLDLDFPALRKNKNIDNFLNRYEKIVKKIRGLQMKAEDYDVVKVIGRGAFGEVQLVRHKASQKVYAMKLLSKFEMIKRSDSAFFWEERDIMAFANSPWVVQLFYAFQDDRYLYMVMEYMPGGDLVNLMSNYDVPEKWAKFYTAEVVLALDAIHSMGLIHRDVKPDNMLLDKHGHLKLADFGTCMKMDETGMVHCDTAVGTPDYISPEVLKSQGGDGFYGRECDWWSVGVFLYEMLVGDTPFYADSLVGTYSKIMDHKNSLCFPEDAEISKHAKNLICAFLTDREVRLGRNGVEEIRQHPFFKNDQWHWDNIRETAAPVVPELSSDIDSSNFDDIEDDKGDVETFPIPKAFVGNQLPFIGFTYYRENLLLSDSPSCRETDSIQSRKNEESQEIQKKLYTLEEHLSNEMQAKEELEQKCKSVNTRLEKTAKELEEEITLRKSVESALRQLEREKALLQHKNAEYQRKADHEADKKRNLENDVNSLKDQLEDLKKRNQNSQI
# Recombinant ROCK1 (amino acids 1-535), sequence (Q13464 1-535): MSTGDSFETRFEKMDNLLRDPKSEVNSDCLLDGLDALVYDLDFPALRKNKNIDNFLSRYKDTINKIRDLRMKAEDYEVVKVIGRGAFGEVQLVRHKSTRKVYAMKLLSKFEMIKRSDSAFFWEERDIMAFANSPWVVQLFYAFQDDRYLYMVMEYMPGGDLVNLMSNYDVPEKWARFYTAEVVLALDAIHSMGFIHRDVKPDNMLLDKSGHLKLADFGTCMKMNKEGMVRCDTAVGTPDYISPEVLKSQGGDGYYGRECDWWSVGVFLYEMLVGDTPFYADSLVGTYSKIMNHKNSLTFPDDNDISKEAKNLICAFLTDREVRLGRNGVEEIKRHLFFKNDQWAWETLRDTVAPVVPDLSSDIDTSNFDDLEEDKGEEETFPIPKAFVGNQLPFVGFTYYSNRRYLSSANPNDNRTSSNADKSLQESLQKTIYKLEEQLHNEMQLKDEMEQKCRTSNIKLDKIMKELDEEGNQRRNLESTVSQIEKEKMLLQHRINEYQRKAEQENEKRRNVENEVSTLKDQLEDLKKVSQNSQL
Structure (SMILES),inhibition at 1 µM [4] [%],"IC50 [1, 7] [nM]",IC50 [2] [nM],IC50 [4] [nM],inhibition at 0.5 µM [2] [%],also measured
"Fc1cnc(N2CCCNCC2)nc1Nc1ccc2[nH]ncc2c1 [Example 215, N-(2-(1,4-diazepan-1-yl)-5-fluoropyrimidin-4-yl)-1H-indazol-5-amine]",–,–,–,–,–,"IC50 [1, 5]: 1220 nM; IC50 ([1]; NIH3T3 cells, plus TGFβ1 for 24 hr): 1780 nM; IC50 [2, 6]: 37 nM; IC50 [3, 6]: 40 nM; inhibition at 10 µM [4]: 68.5%; IC50 ([4]; ppMlc (T18/S19)): 201 nM"
"Cc1cc(Nc2ccc3[nH]ncc3c2)nc(N2CCCNCC2C)n1 (centres unmarked) [Example 117, N-(6-methyl-2-(2-methyl-1,4-diazepan-1-yl)pyrimidin-4-yl)-1H-indazol-5-amine]",50.6,–,–,–,–,"IC50 [1, 5]: 1270 nM; IC50 [2, 6]: 45 nM; IC50 [3, 6]: 15 nM; IC50 ([4]; ppMlc (T18/S19)): 168 nM"
"COc1cnc(N2C3CCC2CNC3)nc1Nc1ccc2[nH]ncc2c1 [Example 198, N-(2-(3,8-diazabicyclo[3.2.1]octan-8-yl)-5-methoxypyrimidin-4-yl)-1H-indazol-5-amine]",38,413,5,57,–,inhibition at 1 µM [2]: 104%; IC50 [3]: 4.1 nM
"c1cc(Nc2ccc3[nH]ncc3c2)nc(N2C3CNCC2C3)n1 [Example 200, N-(2-(3,6-diazabicyclo[3.1.1]heptan-6-yl)pyrimidin-4-yl)-1H-indazol-5-amine]",–,–,–,–,–,"IC50 [1, 5]: 1600 nM; IC50 [2, 6]: 1.6 nM; IC50 [3, 6]: 28 nM; inhibition at 10 µM [4]: 49.8%; IC50 ([4]; ppMlc (T18/S19)): 275 nM"
"Cc1cc(Nc2ccc3[nH]ncc3c2)nc(N2C3CCC2CNC3)n1 [Example 209, N-(2-(3,8-diazabicyclo[3.2.1]octan-8-yl)-6-methylpyrimidin-4-yl)-1H-indazol-5-amine]",53.2,–,–,–,–,"IC50 [1, 5]: 332 nM; IC50 [2, 6]: 34 nM; IC50 [3, 6]: 5 nM; IC50 ([4]; ppMlc (T18/S19)): 47 nM"
"CC1CNCCN(c2nccc(Nc3ccc4[nH]ncc4c3)n2)C1 (centres unmarked) [Example 237, N-(2-(6-methyl-1,4-diazepan-1-yl)pyrimidin-4-yl)-1H-indazol-5-amine]",–,–,–,–,–,"IC50 [1, 5]: 2350 nM; IC50 [2, 6]: 104 nM; IC50 [3, 6]: 63 nM; inhibition at 10 µM [4]: 68.2%; IC50 ([4]; ppMlc (T18/S19)): 423 nM"
"Oc1nc(N2C3CCC2CNC3)nc(Nc2ccc3[nH]ncc3c2)c1F [Example 320, 6-((1H-indazol-5-yl)amino)-2-(3,8-diazabicyclo[3.2.1]octan-8-yl)-5-fluoropyrimidin-4-ol]",–,> 5000,18,> 5000,97,IC50 [3]: 8.7 nM; inhibition at 0.5 µM [3]: 95%
"CC(=O)N1Cc2nc(N3C4CCC3CNC4)nc(Nc3ccc4[nH]ncc4c3)c2C1 [Example 314, 1-(4-((1H-indazol-5-yl)amino)-2-(3,8-diazabicyclo[3.2.1]octan-8-yl)-5,7-dihydro-6H-pyrrolo[3,4-d]pyrimidin-6-yl)ethan-1-one]",–,> 5000,80,> 5000,94,inhibition at 0.5 µM [3]: 81%
"COc1nc(N2C3CCC2CNC3)nc(Nc2ccc3[nH]ncc3c2)c1Cl [Example 321, N-(2-(3,8-diazabicyclo[3.2.1]octan-8-yl)-5-chloro-6-methoxypyrimidin-4-yl)-1H-indazol-5-amine]",–,114,8,74,100,inhibition at 0.5 µM [3]: 98%
"Cc1cc(Nc2ccc3[nH]ncc3c2)nc(N2C3CNCC2C3)n1 [Example 213, N-(2-(3,6-diazabicyclo[3.1.1]heptan-6-yl)-6-methylpyrimidin-4-yl)-1H-indazol-5-amine]",34,–,–,–,–,"IC50 [1, 5]: 230 nM; inhibition at 1 µM [2]: 101%; IC50 [2, 6]: 1.6 nM; IC50 [3, 6]: 0.2 nM; IC50 ([4]; ppMlc (T18/S19)): 60 nM"
"c1cc(-c2cn[nH]c2)ccc1Nc1nc(N2C3CNCC2C3)nc2c1COC2 [Example 316, N-(4-(1H-pyrazol-4-yl)phenyl)-2-(3,6-diazabicyclo[3.1.1]heptan-6-yl)-5,7-dihydrofuro[3,4-d]pyrimidin-4-amine]",–,> 10000,27,2420,85,inhibition at 0.5 µM [3]: 90%
"COc1nc(N2C3CCC2CNC3)nc(Nc2ccc3[nH]ncc3c2)c1F [Example 319, N-(2-(3,8-diazabicyclo[3.2.1]octan-8-yl)-5-fluoro-6-methoxypyrimidin-4-yl)-1H-indazol-5-amine]",–,59,1.1,–,100,inhibition at 0.5 µM [3]: 98%
"CCN(C)c1cc(Nc2ccc3[nH]ncc3c2)nc(N2C3CCC2CNC3)n1 [Example 332, 2-(3,8-diazabicyclo[3.2.1]octan-8-yl)-N4-ethyl-N6-(1H-indazol-5-yl)-N4-methylpyrimidine-4,6-diamine]",–,80,1.2,18,–,–
"FC(F)(F)c1nc(N2C3CCC2CNC3)nc(Nc2ccc3[nH]ncc3c2)c1Cl [Example 340, N-(2-(3,8-diazabicyclo[3.2.1]octan-8-yl)-5-chloro-6-(trifluoromethyl)pyrimidin-4-yl)-1H-indazol-5-amine]",–,894,20,362,–,–
"c1cc(-c2cn[nH]c2)ccc1Nc1nc(N2C3CNCC2C3)nc2c1CNC2 [Example 300, N-(4-(1H-pyrazol-4-yl)phenyl)-2-(3,6-diazabicyclo[3.1.1]heptan-6-yl)-6,7-dihydro-5H-pyrrolo[3,4-d]pyrimidin-4-amine]",–,> 10000,–,> 10000,68,–
"c1cc(Nc2ccc3[nH]ncc3c2)nc(N2CC[C@@H]3NC[C@@H]3C2)n1 [Example 82, N-(2-((1R,6S)-3,7-diazabicyclo[4.2.0]octan-3-yl)pyrimidin-4-yl)-1H-indazol-5-amine]",42.5,3420,12,572,–,–
"Fc1cnc(N2CCC3CNCC3CC2)nc1Nc1ccc2[nH]ncc2c1 (centres unmarked) [Example 169, N-(5-fluoro-2-(octahydropyrrolo[3,4-d]azepin-6(1H)-yl)pyrimidin-4-yl)-1H-indazol-5-amine]",30.9,1830,–,395,–,inhibition at 1 µM [2]: 99.5%
"CN(C)c1nc(N2C3CCC2CNC3)nc(Nc2ccc3[nH]ncc3c2)c1Cl [Example 344, 2-(3,8-diazabicyclo[3.2.1]octan-8-yl)-5-chloro-N^4-(1H-indazol-5-yl)-N^6,N^6-dimethylpyrimidine-4,6-diamine]",–,192,1.7,82,–,–
"Cc1nc(N2CC3CC2CN3)nc(Nc2ccc3[nH]ncc3c2)c1F (centres unmarked) [Example 277, N-(2-(2,5-diazabicyclo[2.2.1]heptan-2-yl)-5-fluoro-6-methylpyrimidin-4-yl)-1H-indazol-5-amine]",63.4,245,3.7,45,–,–
"FC(F)(F)c1cnc(N2C3CCC2CNC3)nc1Nc1ccc2[nH]ncc2c1 [Example 298, N-(2-(3,8-diazabicyclo[3.2.1]octan-8-yl)-5-(trifluoromethyl)pyrimidin-4-yl)-1H-indazol-5-amine]",–,> 5000,75,1520,–,–
"COc1cc2[nH]ncc2cc1Nc1nc(N2C3CCC2CNC3)ncc1Cl [Example 305, N-(2-(3,8-diazabicyclo[3.2.1]octan-8-yl)-5-chloropyrimidin-4-yl)-6-methoxy-1H-indazol-5-amine]",–,3810,160,1410,83,–
"CCOC(=O)[C@H]1N[C@@H]2C[C@@H]1CN(c1ncc(Cl)c(Nc3ccc4[nH]ncc4c3)n1)C2 (stereo in doubt) [Example 326, Ethyl 3-(4-((1H-indazol-5-yl)amino)-5-chloropyrimidin-2-yl)-3,6-diazabicyclo[3.2.1]octane-7-carboxylate]",–,> 10000,305,6290,64,–
